In PubChem BioAssay AID1963864 (Molecular Pharmacology Branch, DTP, NCI, 2024):
pIC50: −log10 of the molar value.

System: KRAS PDC multicell spheroid viability
Assay: Anticancer human tumor 521955-158-R6-J3-PDC patient-derived pancreatic carcinoma cell line growth inhibition [KRAS2]
Settings: for pIC50: curve of first compound; for viability, T/C: stronger effect = lower value
Procedure, shortened: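 KRAS-mutant tumor cells were grown as spheroids with HUVEC endothelial cells and human MSCs as stroma. Targeted agents were tested alone and with KRAS pathway inhibitors. Doses started at or near clinical Cmax, or 10 microM, descending half-log.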

[1] = second compound 0.0316 µM, first compound 0.0316 µM
[2] = second compound 0.0316 µM, first compound 0.1 µM
[3] = second compound 0.0316 µM, first compound 0.316 µM
[4] = second compound 0.0316 µM, first compound 1 µM
[5] = second compound 0.0316 µM, first compound 3.16 µM
[6] = second compound 0.0316 µM, first compound 10 µM
[7] = second compound 0.1 µM, first compound 0.0316 µM
[8] = second compound 0.1 µM, first compound 0.1 µM
[9] = second compound 0.1 µM, first compound 0.316 µM
[10] = second compound 0.1 µM, first compound 1 µM
[11] = second compound 0.1 µM, first compound 3.16 µM
[12] = second compound 0.1 µM, first compound 10 µM
[13] = second compound 0.316 µM, first compound 0.0316 µM
[14] = second compound 0.316 µM, first compound 0.1 µM
[15] = second compound 0.316 µM, first compound 0.316 µM
[16] = second compound 0.316 µM, first compound 1 µM
[17] = second compound 0.316 µM, first compound 3.16 µM
[18] = second compound 0.316 µM, first compound 10 µM
[19] = second compound 1 µM, first compound 0.0316 µM
[20] = second compound 1 µM, first compound 0.1 µM
[21] = second compound 1 µM, first compound 0.316 µM
[22] = second compound 1 µM, first compound 1 µM
[23] = second compound 1 µM, first compound 3.16 µM
[24] = second compound 1 µM, first compound 10 µM
[25] = second compound 3.16 µM, first compound 0.0316 µM
[26] = second compound 3.16 µM, first compound 0.1 µM
[27] = second compound 3.16 µM, first compound 0.316 µM
[28] = second compound 3.16 µM, first compound 1 µM
[29] = second compound 3.16 µM, first compound 3.16 µM
[30] = second compound 3.16 µM, first compound 10 µM
[31] = second compound 10 µM, first compound 0.0316 µM
[32] = second compound 10 µM, first compound 0.1 µM
[33] = second compound 10 µM, first compound 0.316 µM
[34] = second compound 10 µM, first compound 1 µM
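Note: drug exposure lasted seven days.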
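Throughout, for viability, T/C: 100% = DMSO vehicle wells and lower means fewer viable cells.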

## CC1OCC2(CCN(c3cnc(Sc4ccnc(N)c4Cl)c(N)n3)CC2)C1N (centres undefined) + C=CC(=O)N1CCN(c2nc(OCC3CCCN3C)nc3c2CCN(c2cccc4cccc(C)c24)C3)CC1CC#N
Second compound 0.0316 µM
  pIC50: < 5.00
Second compound 0.1 µM
  pIC50: < 5.00
Second compound 0.316 µM
  pIC50: < 5.00
Second compound 1 µM
  pIC50: < 5.00
Second compound 3.16 µM
  pIC50: > 7.50
[1]
  viability, T/C: 88.4%
[2]
  viability, T/C: 103%
[3]
  viability, T/C: 92.2%
[4]
  viability, T/C: 96%
[5]
  viability, T/C: 114%
[6]
  viability, T/C: 109%
[7]
  viability, T/C: 92.7%
[8]
  viability, T/C: 97.4%
[9]
  viability, T/C: 84.2%
[10]
  viability, T/C: 86.1%
[11]
  viability, T/C: 114%
[12]
  viability, T/C: 114%
[13]
  viability, T/C: 87.5%
[14]
  viability, T/C: 86.1%
[15]
  viability, T/C: 85%
[16]
  viability, T/C: 90.4%
[17]
  viability, T/C: 101%
[18]
  viability, T/C: 106%
[19]
  viability, T/C: 75.7%
[20]
  viability, T/C: 68.7%
[21]
  viability, T/C: 64.9%
[22]
  viability, T/C: 67.4%
[23]
  viability, T/C: 90.2%
[24]
  viability, T/C: 113%
[25]
  viability, T/C: 40.8%
[26]
  viability, T/C: 32.3%
[27]
  viability, T/C: 25.2%
[28]
  viability, T/C: 37.3%
[29]
  viability, T/C: 28.9%
[30]
  viability, T/C: 23.7%

## CC1(C)CCC(CN2CCN(c3ccc(C(=O)NS(=O)(=O)c4ccc(NCC5CCOCC5)c([N+](=O)[O-])c4)c(Oc4cnc5[nH]ccc5c4)c3)CC2)=C(c2ccc(Cl)cc2)C1
Compound 0.0316 µM
  viability, T/C: 96.5% [middle of 5 runs]
Compound 0.1 µM
  viability, T/C: 96.3% [middle of 5 runs]
Compound 0.316 µM
  viability, T/C: 90.6% [middle of 5 runs]
Compound 1 µM
  viability, T/C: 97.9% [middle of 5 runs]

## Cn1nccc1Nc1nccc(-c2cc3c(s2)C(C)(C)N(CCN2CCOCC2)C3=O)n1 + CC1OCC2(CCN(c3cnc(Sc4ccnc(N)c4Cl)c(N)n3)CC2)C1N
Second compound 0.1 µM
  pIC50: < 5.00
Second compound 0.316 µM
  pIC50: < 5.00
Second compound 1 µM
  pIC50: 5.10
Second compound 3.16 µM
  pIC50: 5.55
Second compound 10 µM
  pIC50: 5.82
[7]
  viability, T/C: 89.8%
[8]
  viability, T/C: 93.9%
[9]
  viability, T/C: 94.2%
[10]
  viability, T/C: 81.2%
[11]
  viability, T/C: 68.4%
[12]
  viability, T/C: 62.6%
[13]
  viability, T/C: 93.9%
[14]
  viability, T/C: 95.5%
[15]
  viability, T/C: 90.3%
[16]
  viability, T/C: 67.4%
[17]
  viability, T/C: 63.7%
[18]
  viability, T/C: 57.1%
[19]
  viability, T/C: 88.4%
[20]
  viability, T/C: 98%
[21]
  viability, T/C: 82.2%
[22]
  viability, T/C: 72.2%
[23]
  viability, T/C: 53.7%
[24]
  viability, T/C: 49.2%
[25]
  viability, T/C: 82.1%
[26]
  viability, T/C: 88.4%
[27]
  viability, T/C: 72.7%
[28]
  viability, T/C: 59.9%
[29]
  viability, T/C: 47.8%
[30]
  viability, T/C: 47.7%
[31]
  viability, T/C: 93.2%
[32]
  viability, T/C: 86.6%
[33]
  viability, T/C: 71.9%
[34]
  viability, T/C: 53.6%
Second compound 10 µM, first compound 3.16 µM
  viability, T/C: 43.4%
Second compound 10 µM, first compound 10 µM
  viability, T/C: 39.5%

## CC1(C)CCC(CN2CCN(c3ccc(C(=O)NS(=O)(=O)c4ccc(NCC5CCOCC5)c([N+](=O)[O-])c4)c(Oc4cnc5[nH]ccc5c4)c3)CC2)=C(c2ccc(Cl)cc2)C1 + C=CC(=O)N1CCN(c2nc(OCC3CCCN3C)nc3c2CCN(c2cccc4cccc(C)c24)C3)CC1CC#N
Second compound 0.0316 µM
  pIC50: 5.41
Second compound 0.1 µM
  pIC50: 5.35
Second compound 0.316 µM
  pIC50: 5.57
Second compound 1 µM
  pIC50: 5.72
Second compound 3.16 µM
  pIC50: > 7.50
[1]
  viability, T/C: 104%
[2]
  viability, T/C: 97.5%
[3]
  viability, T/C: 95.6%
[4]
  viability, T/C: 92.7%
[5]
  viability, T/C: 57.3%
[6]
  viability, T/C: 14.4%
[7]
  viability, T/C: 93.5%
[8]
  viability, T/C: 97.3%
[9]
  viability, T/C: 90.6%
[10]
  viability, T/C: 91.9%
[11]
  viability, T/C: 64.2%
[12]
  viability, T/C: 17%
[13]
  viability, T/C: 92%
[14]
  viability, T/C: 95.8%
[15]
  viability, T/C: 101%
[16]
  viability, T/C: 97.2%
[17]
  viability, T/C: 42.1%
[18]
  viability, T/C: 15.4%
[19]
  viability, T/C: 82.4%
[20]
  viability, T/C: 78.2%
[21]
  viability, T/C: 80.1%
[22]
  viability, T/C: 76.9%
[23]
  viability, T/C: 29.4%
[24]
  viability, T/C: 6.62%
[25]
  viability, T/C: 45.2%
[26]
  viability, T/C: 48.4%
[27]
  viability, T/C: 24.2%
[28]
  viability, T/C: 8.37%
[29]
  viability, T/C: 0.18%
[30]
  viability, T/C: 0.23%

## CCN1CCN(Cc2ccc(Nc3ncc(F)c(-c4cc(F)c5nc(C)n(C(C)C)c5c4)n3)nc2)CC1 + COc1cc2nc(C)nc(NC(C)c3cc(N)cc(C(F)(F)F)c3)c2cc1OC1CCOC1
Second compound 0.1 µM
  pIC50: < 6.00
Second compound 0.316 µM
  pIC50: < 6.00
Second compound 1 µM
  pIC50: < 6.00
Second compound 3.16 µM
  pIC50: < 6.00
Second compound 10 µM
  pIC50: > 8.50
Second compound 0.1 µM, first compound 0.00316 µM
  viability, T/C: 105%
Second compound 0.1 µM, first compound 0.01 µM
  viability, T/C: 88%
[7]
  viability, T/C: 69.7%
[8]
  viability, T/C: 83.9%
[9]
  viability, T/C: 73.7%
[10]
  viability, T/C: 101%
Second compound 0.316 µM, first compound 0.00316 µM
  viability, T/C: 93.8%
Second compound 0.316 µM, first compound 0.01 µM
  viability, T/C: 84.5%
[13]
  viability, T/C: 88.3%
[14]
  viability, T/C: 69.8%
[15]
  viability, T/C: 71.8%
[16]
  viability, T/C: 88.8%
Second compound 1 µM, first compound 0.00316 µM
  viability, T/C: 90.7%
Second compound 1 µM, first compound 0.01 µM
  viability, T/C: 84.1%
[19]
  viability, T/C: 86.1%
[20]
  viability, T/C: 75.6%
[21]
  viability, T/C: 71.5%
[22]
  viability, T/C: 86.8%
Second compound 3.16 µM, first compound 0.00316 µM
  viability, T/C: 87.1%
Second compound 3.16 µM, first compound 0.01 µM
  viability, T/C: 82.1%
[25]
  viability, T/C: 79.1%
[26]
  viability, T/C: 66.8%
[27]
  viability, T/C: 69.8%
[28]
  viability, T/C: 77.4%
Second compound 10 µM, first compound 0.00316 µM
  viability, T/C: 33.4%
Second compound 10 µM, first compound 0.01 µM
  viability, T/C: 33.6%
[31]
  viability, T/C: 40.5%
[32]
  viability, T/C: 55.1%
[33]
  viability, T/C: 17.6%
[34]
  viability, T/C: 10%

## CC(C)NCC(C(=O)N1CCN(c2ncnc3c2C(C)CC3O)CC1)c1ccc(Cl)cc1 (centres undefined) + C=CC(=O)N1CCN(c2nc(OCC3CCCN3C)nc3c2CCN(c2cccc4cccc(C)c24)C3)CC1CC#N
Second compound 0.0316 µM
  pIC50: < 5.00
Second compound 0.1 µM
  pIC50: < 5.00
Second compound 0.316 µM
  pIC50: < 5.00
Second compound 1 µM
  pIC50: < 5.00
Second compound 3.16 µM
  pIC50: > 7.50
[1]
  viability, T/C: 80.4%
[2]
  viability, T/C: 86.4%
[3]
  viability, T/C: 84.4%
[4]
  viability, T/C: 75.9%
[5]
  viability, T/C: 76.3%
[6]
  viability, T/C: 65%
[7]
  viability, T/C: 76.8%
[8]
  viability, T/C: 87.5%
[9]
  viability, T/C: 74.4%
[10]
  viability, T/C: 66.2%
[11]
  viability, T/C: 74.3%
[12]
  viability, T/C: 57.4%
[13]
  viability, T/C: 79.1%
[14]
  viability, T/C: 74.2%
[15]
  viability, T/C: 74.3%
[16]
  viability, T/C: 66.7%
[17]
  viability, T/C: 74.3%
[18]
  viability, T/C: 65.1%
[19]
  viability, T/C: 63.3%
[20]
  viability, T/C: 59%
[21]
  viability, T/C: 68.5%
[22]
  viability, T/C: 58.9%
[23]
  viability, T/C: 58.3%
[24]
  viability, T/C: 57.4%
[25]
  viability, T/C: 43.9%
[26]
  viability, T/C: 38%
[27]
  viability, T/C: 35.2%
[28]
  viability, T/C: 29.1%
[29]
  viability, T/C: 25.1%
[30]
  viability, T/C: 15.8%
